Values after ≈ are worked out from the molar mass of the structure shown. Where two headings read alike, the source gives them in different places.
Tested on: Saccharomyces cerevisiae wild type BY4741
Assay: MIC determination in Saccharomyces cerevisiae wild type BY4741
Type: cell-based
Experimental: In Vitro Antifungal Activity. MIC values for various strains were determined in accordance with the standard protocol from the National Committee of Clinical Laboratory Standards but using YEPD liquid medium instead of RPMI-1640 medium (National Committee of Clinical Laboratory Standards (Reference Method for Broth Dilution Antifungal Susceptibility Testing of Yeast, M27-A2, Approved Standard-Second Edition, Volume 22, Number 15, 1995). AmB was used as a reference. The strains were cultivated overnight in 5 mL YEPD liquid medium at 30 to 37° C. (30° C. for the strain BY4741; 37° C. for the strain DSY1764) with constant shaking. The saturated cultures were diluted to an ODB600 of 0.1 (3×10P^7 cells/mL). Using 24 wells plate, each well was prepared by adding 1% (12 μL) of DMSO solution of the tested polyene macrolide with 1% (12 μL) yeast cells solution and completed with YEPD (1.176 mL). The plates were sealed with Parafilm and then incubated for 18 to 36 hours at 30 to 37° C. (18 hours at 30° C. for the strain BY4741; 36 hours at 37° C. for the strain DSY1764). The optical density was read at 600 nm using 1.5 mL cuvettes. The MIC value was defined as the drug concentration needed to inhibit growth, less than 5% compared to a drug-free culture.
MIC values of various polyene macrolides of the invention in Saccharomyces cerevisiae wild type BY4741, a derivative of S288C, (with AmB as a reference) were determined as described hereinabove.
Based on the remarkable performance observed with the Diamine-AmB conjugate similar modifications of the aminosugar moiety were made on other polyene macrolides, such as for example Nystatin (1b) and Pimaricin (1c). The antifungal activity of these nystatin and pimaricin conjugates bearing two aminopropyl side chains was measured using Saccharomyces cerevisiae wild type BY4741.

[1] = Table 5, Saccharomyces cerevisiae wild type BY4741, read-out: MIC
[2] = Saccharomyces cerevisiae wild type BY4741, YEPD liquid medium, 18 hours at 30° C., read-out: MIC
[3] = Saccharomyces cerevisiae wild type BY4741

SMILES | MIC [1] | MIC (Saccharomyces cerevisiae, 18 h) | further results
C[C@@H]1[C@H](O)[C@@H](C)/C=C/C=C/CC/C=C/C=C/C=C/C=C/C(O[C@H]2O[C@H](C)[C@@H](O)[C@H](N)[C@@H]2O)CC2O[C@](O)(CC(O)C(O)CCC(O)CC(O)CC(O)CC(=O)O[C@H]1C)CC(O)C2C(=O)O (stereo partly drawn) [1b (Nystatin), Nystatin, reference compound] | 3.0 µM (≈ 2.78 µg/mL) | – | –
C[C@@H]1C/C=C/C=C/C=C/C=C/[C@H](O[C@@H]2O[C@H](C)[C@@H](O)[C@H](N)[C@@H]2O)C[C@@H]2O[C@](O)(C[C@@H](O)C[C@H]3O[C@@H]3/C=C/C(=O)O1)C[C@H](O)[C@H]2C(=O)O [1c (Pimaricin), Pimaricin, reference compound] | 4 µM (≈ 2.66 µg/mL) | – | –
C[C@@H]1[C@H](O)[C@@H](C)/C=C/C=C/C=C/C=C/C=C/C=C/C=C/[C@H](OC2O[C@H](C)[C@@H](O)[C@H](N(CCN)CCN)[C@@H]2O)CC2O[C@](O)(C[C@@H](O)C[C@@H](O)[C@H](O)CC[C@@H](O)C[C@@H](O)CC(=O)O[C@H]1C)C[C@H](O)[C@H]2C(=O)O (stereo partly drawn) [compound 2, N,N-Di-(2-aminoethyl)-AmB] | – | 0.25 µM (≈ 0.253 µg/mL) | –
C[C@@H]1[C@H](O)[C@@H](C)/C=C/C=C/C=C/C=C/C=C/C=C/C=C/[C@H](OC2O[C@H](C)[C@@H](O)[C@H](N(CCCO)CCCO)[C@@H]2O)CC2O[C@](O)(C[C@@H](O)C[C@@H](O)[C@H](O)CC[C@@H](O)C[C@@H](O)CC(=O)O[C@H]1C)C[C@H](O)[C@H]2C(=O)O (stereo partly drawn) [compound 4, N,N-Di-(3-hydroxypropyl)-AmB] | – | 0.5 µM (≈ 0.52 µg/mL) | –
C[C@@H]1[C@H](O)[C@@H](C)/C=C/C=C/C=C/C=C/C=C/C=C/C=C/[C@H](O[C@@H]2O[C@H](C)[C@@H](O)[C@H](N(CC(N)CCCCN)CC(N)CCCCN)[C@@H]2O)CC2O[C@](O)(C[C@@H](O)C[C@@H](O)[C@H](O)CC[C@@H](O)C[C@@H](O)CC(=O)O[C@H]1C)C[C@H](O)[C@H]2C(=O)O (stereo partly drawn) [compound 5, N,N-Di-(2,6-diaminohexyl)-AmB] | – | 0.08 µM (≈ 0.0922 µg/mL) | –
C[C@@H]1[C@H](O)[C@@H](C)/C=C/C=C/C=C/C=C/C=C/C=C/C=C/[C@H](O[C@@H]2O[C@H](C)[C@@H](O)[C@H](N(CCNC(=N)N)CCNC(=N)N)[C@@H]2O)CC2O[C@](O)(C[C@@H](O)C[C@@H](O)[C@H](O)CC[C@@H](O)C[C@@H](O)CC(=O)O[C@H]1C)C[C@H](O)[C@H]2C(=O)O [compound 6, N,N-Di-(2-ethylguanidine)-AmB] | – | 0.1 µM (≈ 0.109 µg/mL) | –
C[C@@H]1[C@H](O)[C@@H](C)/C=C/C=C/C=C/C=C/C=C/C=C/C=C/[C@H](O[C@@H]2O[C@H](C)[C@@H](O)[C@H](N3CCN(C(=O)CCCCCNC(=O)C(N)CCCCN)CC3)[C@@H]2O)CC2O[C@](O)(C[C@@H](O)C[C@@H](O)[C@H](O)CC[C@@H](O)C[C@@H](O)CC(=O)O[C@H]1C)C[C@H](O)[C@H]2C(=O)O (stereo partly drawn) [compound 7, 2,6-Diamino-N-[6-oxo-6-(piperazin-1-yl)-hexyl]-hexanamide-AmB] | – | – | MIC [2]: 0.1 µM (≈ 0.123 µg/mL)
C[C@@H]1[C@H](O)[C@@H](C)/C=C/C=C/C=C/C=C/C=C/C=C/C=C/[C@H](O[C@@H]2O[C@H](C)[C@@H](O)[C@H](N3CCN(C(=O)CCCCCNC(=O)C(N)CCCCNC(=N)N)CC3)[C@@H]2O)CC2O[C@](O)(C[C@@H](O)C[C@@H](O)[C@H](O)CC[C@@H](O)C[C@@H](O)CC(=O)O[C@H]1C)C[C@H](O)[C@H]2C(=O)O (stereo partly drawn) [compound 8, 2-Amino-6-guanidine-N-[6-oxo-6-(piperazin-1-yl)-hexyl]-hexanamide-AmB] | – | – | MIC [2]: 0.1 µM (≈ 0.128 µg/mL)
C[C@@H]1[C@H](O)[C@@H](C)/C=C/C=C/CC/C=C/C=C/C=C/C=C/[C@H](O[C@@H]2O[C@H](C)[C@@H](O)[C@H](N(CCCN)CCCN)[C@@H]2O)CC2O[C@](O)(C[C@@H](O)[C@H](O)CC[C@@H](O)C[C@@H](O)C[C@@H](O)CC(=O)O[C@H]1C)C[C@H](O)[C@H]2C(=O)O [compound 17, N,N-Di-(3-aminopropyl)-Nystatin] | – | – | MIC (Saccharomyces cerevisiae): 0.05 µM (≈ 0.052 µg/mL); antifungal activity compared with the native compounds 1b and 1c [3]: significantly more active
C[C@@H]1C/C=C/C=C/C=C/C=C/[C@H](O[C@@H]2O[C@H](C)[C@@H](O)[C@H](N(CCCN)CCCN)[C@@H]2O)C[C@@H]2O[C@](O)(C[C@@H](O)C[C@H]3O[C@@H]3/C=C/C(=O)O1)C[C@H](O)[C@H]2C(=O)O [compound 18, N,N-Di-(3-aminopropyl)-Pimaricin] | 0.3 µM (≈ 0.234 µg/mL) | – | antifungal activity compared with the native compounds 1b and 1c [3]: significantly more active
